Assay [1] deals with T1, HiBit-BRG1 fusion protein (Homo sapiens, UniProt P51532).
T1 construct: expressed in transfected cells
The assay can be described thus: HiBiT-BRG1 cell-based degradation assay (Nano-Glo HiBiT Lytic Detection, 24 h). The settings on record: HeLa cell line expressing HiBit-BRG1 and LgBit; for Dmax: read-out: BRG1 HiBit Degradation Maximum (%); for DC50: read-out: BRMG1 HiBit Degradation IC50. The essentials:
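Stable HeLa line co-expressing HiBit-BRG1 and LgBit, 5000 cells/well, treated 24 h in a tissue culture incubator. Lysed with Nano-Glo HiBiT lytic reagent, luminescence read. % degradation normalized to DMSO (high control) and 2 μM reference BRM/BRG1 degrader (low control).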
In general terms: HiBiT is a short tag that completes a luciferase, so light tracks the accessible tagged protein.

In the next assay the target is T2, HiBit-BRM fusion protein (Homo sapiens, UniProt P51531).
T2 construct: expressed in transfected cells
The assay can be described thus: HiBiT-BRM cell-based degradation assay (Nano-Glo HiBiT Lytic Detection, 24 h). To be noted: HeLa cell line expressing HiBiT-BRM; for DC50: read-out: BRM HiBit Degradation IC50. The essentials: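 HeLa cells stably expressing HiBiT-BRM were dosed with compounds (10-point 3-fold dilutions, 30 μM final top dose, duplicate) for 24 h. HiBiT signal was read by lytic LgBiT complementation luminescence. Percent degradation was normalised to DMSO (high control) and 2 μM of a reference BRM/BRG1 degrader (low control).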

T2 sequence (P51531 whole entry, the tested form may be a part): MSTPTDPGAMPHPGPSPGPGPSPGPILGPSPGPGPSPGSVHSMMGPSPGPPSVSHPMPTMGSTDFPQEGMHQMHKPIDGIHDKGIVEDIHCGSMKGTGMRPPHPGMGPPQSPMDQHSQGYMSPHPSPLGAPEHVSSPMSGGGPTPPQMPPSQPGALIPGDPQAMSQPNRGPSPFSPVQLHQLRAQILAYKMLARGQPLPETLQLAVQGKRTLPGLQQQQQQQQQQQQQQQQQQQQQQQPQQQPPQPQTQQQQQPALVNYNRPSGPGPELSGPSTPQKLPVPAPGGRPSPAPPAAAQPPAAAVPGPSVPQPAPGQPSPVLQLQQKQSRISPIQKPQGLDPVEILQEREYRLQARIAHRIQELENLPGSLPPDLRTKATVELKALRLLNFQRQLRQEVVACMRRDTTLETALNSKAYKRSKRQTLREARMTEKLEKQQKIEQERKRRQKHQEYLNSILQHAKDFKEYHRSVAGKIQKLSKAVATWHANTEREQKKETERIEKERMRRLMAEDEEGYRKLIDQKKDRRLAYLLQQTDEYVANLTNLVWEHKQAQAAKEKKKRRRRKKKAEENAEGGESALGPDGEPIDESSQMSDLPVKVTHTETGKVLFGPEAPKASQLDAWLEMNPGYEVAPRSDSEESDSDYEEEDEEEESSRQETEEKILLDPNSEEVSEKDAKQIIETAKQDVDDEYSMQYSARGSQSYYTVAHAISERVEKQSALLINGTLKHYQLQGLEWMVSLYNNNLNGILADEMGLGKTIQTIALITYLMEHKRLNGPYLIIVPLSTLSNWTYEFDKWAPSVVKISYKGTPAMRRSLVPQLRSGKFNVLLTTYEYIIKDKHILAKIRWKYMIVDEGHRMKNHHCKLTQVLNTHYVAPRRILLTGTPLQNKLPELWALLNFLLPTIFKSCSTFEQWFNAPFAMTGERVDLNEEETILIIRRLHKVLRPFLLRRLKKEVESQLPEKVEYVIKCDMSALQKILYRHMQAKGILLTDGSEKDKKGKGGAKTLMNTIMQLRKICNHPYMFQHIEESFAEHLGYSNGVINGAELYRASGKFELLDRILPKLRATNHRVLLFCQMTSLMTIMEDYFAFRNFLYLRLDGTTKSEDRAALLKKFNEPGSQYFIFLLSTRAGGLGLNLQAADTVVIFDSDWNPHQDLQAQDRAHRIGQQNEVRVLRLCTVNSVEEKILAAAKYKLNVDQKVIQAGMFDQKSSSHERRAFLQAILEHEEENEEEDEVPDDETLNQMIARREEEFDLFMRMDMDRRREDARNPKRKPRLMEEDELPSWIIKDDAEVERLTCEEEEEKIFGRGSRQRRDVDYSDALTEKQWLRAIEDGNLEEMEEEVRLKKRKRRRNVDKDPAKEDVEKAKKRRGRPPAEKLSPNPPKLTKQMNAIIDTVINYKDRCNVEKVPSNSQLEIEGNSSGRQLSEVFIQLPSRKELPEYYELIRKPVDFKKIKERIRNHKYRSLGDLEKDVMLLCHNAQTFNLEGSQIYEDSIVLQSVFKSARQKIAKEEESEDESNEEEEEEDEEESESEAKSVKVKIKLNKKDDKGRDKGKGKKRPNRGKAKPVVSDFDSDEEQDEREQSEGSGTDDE
T1 sequence (P51532 whole entry, the tested form may be a part): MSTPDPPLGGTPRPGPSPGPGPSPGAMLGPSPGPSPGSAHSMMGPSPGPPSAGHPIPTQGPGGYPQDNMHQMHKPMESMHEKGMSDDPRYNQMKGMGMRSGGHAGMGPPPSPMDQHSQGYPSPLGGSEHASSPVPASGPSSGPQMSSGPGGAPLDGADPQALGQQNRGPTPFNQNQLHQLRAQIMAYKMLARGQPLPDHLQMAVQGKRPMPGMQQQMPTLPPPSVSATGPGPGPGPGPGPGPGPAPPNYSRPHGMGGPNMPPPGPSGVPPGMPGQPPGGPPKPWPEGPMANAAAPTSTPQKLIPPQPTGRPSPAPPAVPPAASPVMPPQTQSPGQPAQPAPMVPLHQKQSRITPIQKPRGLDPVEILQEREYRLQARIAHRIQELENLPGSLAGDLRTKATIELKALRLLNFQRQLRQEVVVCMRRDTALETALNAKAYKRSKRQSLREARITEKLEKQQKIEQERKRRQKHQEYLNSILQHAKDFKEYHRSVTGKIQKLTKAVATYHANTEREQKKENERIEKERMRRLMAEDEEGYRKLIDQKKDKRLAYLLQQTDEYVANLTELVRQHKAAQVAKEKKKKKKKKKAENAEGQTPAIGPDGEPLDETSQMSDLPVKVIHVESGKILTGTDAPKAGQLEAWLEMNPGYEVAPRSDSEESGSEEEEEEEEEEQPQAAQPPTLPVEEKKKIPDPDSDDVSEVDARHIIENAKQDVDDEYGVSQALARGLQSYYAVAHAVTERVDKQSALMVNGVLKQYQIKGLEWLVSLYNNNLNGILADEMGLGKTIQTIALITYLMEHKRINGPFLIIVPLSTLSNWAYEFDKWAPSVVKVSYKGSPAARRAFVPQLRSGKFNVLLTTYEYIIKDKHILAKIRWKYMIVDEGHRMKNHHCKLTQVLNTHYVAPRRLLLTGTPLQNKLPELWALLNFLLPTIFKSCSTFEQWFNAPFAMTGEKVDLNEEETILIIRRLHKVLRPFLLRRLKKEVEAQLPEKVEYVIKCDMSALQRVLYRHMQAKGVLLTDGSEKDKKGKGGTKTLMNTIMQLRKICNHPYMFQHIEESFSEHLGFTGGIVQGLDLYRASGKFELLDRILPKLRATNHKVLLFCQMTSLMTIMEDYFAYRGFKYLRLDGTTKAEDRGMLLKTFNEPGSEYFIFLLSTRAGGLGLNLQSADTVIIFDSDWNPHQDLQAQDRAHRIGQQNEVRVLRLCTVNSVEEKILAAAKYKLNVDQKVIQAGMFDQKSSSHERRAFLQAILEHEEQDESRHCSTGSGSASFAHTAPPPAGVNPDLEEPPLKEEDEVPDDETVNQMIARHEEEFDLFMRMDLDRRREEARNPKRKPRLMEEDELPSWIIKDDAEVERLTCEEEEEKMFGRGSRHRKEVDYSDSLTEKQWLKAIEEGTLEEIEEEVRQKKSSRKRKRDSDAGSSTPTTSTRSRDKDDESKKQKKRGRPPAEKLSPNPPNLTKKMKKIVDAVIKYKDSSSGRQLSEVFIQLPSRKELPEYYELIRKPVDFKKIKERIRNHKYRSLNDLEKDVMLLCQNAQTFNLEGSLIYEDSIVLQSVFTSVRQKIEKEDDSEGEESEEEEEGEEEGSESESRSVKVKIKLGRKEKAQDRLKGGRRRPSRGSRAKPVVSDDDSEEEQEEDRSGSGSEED

For the compound `Cc1ncsc1-c1ccc([C@H](C)NC(=O)[C@@H]2C[C@@H](O)CN2C(=O)[C@@H](c2cc(N3CCN(C(=O)c4cc5cc(-c6ccccc6O)nnc5[nH]4)CC3)no2)C(C)C)cc1` (racemic) [Compound 253, (2S,4R)-4-hydroxy-1-((R)-2-(3-(4-(3-(2-hydroxyphenyl)-7H-pyrrolo[2,3-c]pyridazine-6-carbonyl)piperazin-1-yl)isoxazol-5-yl)-3-methylbutanoyl)-N-((S)-1-(4-(4-methylthiazol-5-yl)phenyl)ethyl)pyrrolidine-2-carboxamide], in assay [1], the Dmax is > 75% and the DC50 was > 100 nM. Further, on HiBit-BRM fusion protein, the “BRM HiBit Degradation Maximum (%)” value is on record as “A (“A” indicates maximum degradation ≥ 75%)” and the DC50 was > 100 nM.
Consider `O=C1CCC(N2C(=O)c3ccc(NCCCCCCCCCCC(=O)N4CC(c5cc6cc(-c7ccccc7O)nnc6[nH]5)C4)cc3C2=O)C(=O)N1` (stereo not shown) [Compound 32, 2-(2,6-dioxopiperidin-3-yl)-5-((11-(3-(3-(2-hydroxyphenyl)-7H-pyrrolo[2,3-c]pyridazin-6-yl)azetidin-1-yl)-11-oxoundecyl)amino)isoindoline-1,3-dione], for which the Dmax in assay [1] was < 50%. At HiBit-BRM fusion protein, the “BRM HiBit Degradation Maximum (%)” value is given as “C (“C” indicates maximum degradation < 50%)”.
In the case of `Cc1ncsc1-c1ccc([C@H](C)NC(=O)[C@@H]2C[C@@H](O)CN2C(=O)[C@@H](c2cc(OCCNC3CC[C@]34C[C@@H](c3cc5cc(-c6ccccc6O)nnc5[nH]3)C4)no2)C(C)C)cc1` (mixture of isomers) [Compound 133, (2S,4R)-4-hydroxy-1-((R)-2-(3-(2-(((1S,4r,6R)-6-(3-(2-hydroxyphenyl)-7H-pyrrolo[2,3-c]pyridazin-6-yl)spiro[3.3]heptan-1-yl)amino)ethoxy)isoxazol-5-yl)-3-methylbutanoyl)-N-((S)-1-(4-(4-methylthiazol-5-yl)phenyl)ethyl)pyrrolidine-2-carboxamide], in assay [1], the Dmax is > 50% and the DC50 is > 100 nM. Besides, at HiBit-BRM fusion protein, the “BRM HiBit Degradation Maximum (%)” value was “A (“A” indicates maximum degradation ≥ 75%)” and the DC50 is > 10 nM.
As for `Cc1ncsc1-c1ccc([C@H](C)NC(=O)[C@@H]2C[C@@H](O)CN2C(=O)[C@@H](c2cc(N3CCC(N4CC(c5cc6cc(-c7ccccc7O)nnc6[nH]5)C4)CC3)no2)C(C)C)cc1` (racemic) [Compound 248, (2S,4R)-4-hydroxy-1-((R)-2-(3-(4-(3-(3-(2-hydroxyphenyl)-7H-pyrrolo[2,3-c]pyridazin-6-yl)azetidin-1-yl)piperidin-1-yl)isoxazol-5-yl)-3-methylbutanoyl)-N-((S)-1-(4-(4-methylthiazol-5-yl)phenyl)ethyl)pyrrolidine-2-carboxamide], in assay [1], the Dmax was > 50% and the DC50 is > 100 nM. Besides, on HiBit-BRM fusion protein, the “BRM HiBit Degradation Maximum (%)” value is on record as “A (“A” indicates maximum degradation ≥ 75%)” and the DC50 is > 10 nM.
Turning to `Cc1ncsc1-c1ccc([C@H](C)NC(=O)[C@@H]2C[C@@H](O)CN2C(=O)[C@@H](c2cc(N3CCC(CN4CCc5[nH]c6nnc(-c7ccccc7O)cc6c5C4)CC3)no2)C(C)C)cc1` (racemic) [Compound 193, (2S,4R)-4-hydroxy-1-((R)-2-(3-(4-((3-(2-hydroxyphenyl)-5,7,8,9-tetrahydro-6H-pyrido [3′,4′:4,5]pyrrolo[2,3-c]pyridazin-6-yl)methyl)piperidin-1-yl)isoxazol-5-yl)-3-methylbutanoyl)-N-((S)-1-(4-(4-methylthiazol-5-yl)phenyl)ethyl)pyrrolidine-2-carboxamide], in assay [1], the Dmax was > 50% and the DC50 was > 100 nM. On HiBit-BRM fusion protein, the “BRM HiBit Degradation Maximum (%)” value is on record as “A (“A” indicates maximum degradation ≥ 75%)” and the DC50 was > 10 nM.
As for `Cc1ncsc1-c1ccc([C@H](C)NC(=O)[C@@H]2C[C@@H](O)CN2C(=O)[C@H](c2cc(N3C[C@@H]4C[C@H]3CN4C(=O)[C@@H]3CCc4[nH]c5nnc(-c6ccccc6O)cc5c4C3)no2)C(C)C)cc1` (single isomer, unassigned) [Compound 100], the Dmax in assay [1] was < 50%. Besides, the “BRM HiBit Degradation Maximum (%)” value on HiBit-BRM fusion protein is “C (“C” indicates maximum degradation < 50%)”.
For `Cc1ncsc1-c1ccc([C@H](C)NC(=O)[C@@H]2C[C@@H](O)CN2C(=O)[C@@H](c2cc(N3CCC(C(=O)N4CCc5[nH]c6nnc(-c7ccccc7O)cc6c5C4)CC3)no2)C(C)C)cc1` (racemic) [Compound 187, (2S,4R)-4-hydroxy-1-((R)-2-(3-(4-(3-(2-hydroxyphenyl)-6,7,8,9-tetrahydro-5H-pyrido[3′,4′:4,5]pyrrolo[2,3-c]pyridazine-6-carbonyl)piperidin-1-yl)isoxazol-5-yl)-3-methylbutanoyl)-N-((S)-1-(4-(4-methylthiazol-5-yl)phenyl)ethyl)pyrrolidine-2-carboxamide], in assay [1], the Dmax is < 50%. Also, at HiBit-BRM fusion protein, the “BRM HiBit Degradation Maximum (%)” value is “A (“A” indicates maximum degradation ≥ 75%)” and the DC50 was > 10 nM.
`Cc1ncsc1-c1ccc([C@H](C)NC(=O)[C@@H]2C[C@@H](O)CN2C(=O)[C@@H](c2cc(OCCCN3CCN(Cc4cc5cc(-c6ccccc6O)nnc5[nH]4)CC3)no2)C(C)C)cc1` (racemic) [Compound 214, (2S,4R)-4-hydroxy-1-((R)-2-(3-(3-(4-((3-(2-hydroxyphenyl)-7H-pyrrolo[2,3-c]pyridazin-6-yl)methyl)piperazin-1-yl)propoxy)isoxazol-5-yl)-3-methylbutanoyl)-N-((S)-1-(4-(4-methylthiazol-5-yl)phenyl)ethyl)pyrrolidine-2-carboxamide]: in assay [1], the Dmax was > 75% and the DC50 is > 100 nM. At HiBit-BRM fusion protein, the “BRM HiBit Degradation Maximum (%)” value is “A (“A” indicates maximum degradation ≥ 75%)” and the DC50 was > 100 nM.
Turning to `Cc1ncsc1-c1ccc([C@H](C)NC(=O)[C@@H]2C[C@@H](O)CN2C(=O)[C@@H](c2cc(OCCN3CC(c4[nH]c5nnc(-c6ccccc6O)cc5c4Br)C3)no2)C(C)C)cc1` (racemic) [Compound 120], in assay [1], the Dmax was < 50%. At HiBit-BRM fusion protein, the “BRM HiBit Degradation Maximum (%)” value is “A (“A” indicates maximum degradation ≥ 75%)” and the DC50 was > 10 nM.
Turning to `Cc1ncsc1-c1ccc([C@H](C)NC(=O)[C@@H]2C[C@@H](O)CN2C(=O)[C@@H](c2cc(CCN3CC(c4cc5cc(-c6ccccc6O)nnc5[nH]4)C3)no2)C(C)C)cc1` (single isomer, unassigned) [Compound 152], the Dmax in assay [1] is < 50%. For the same compound, at HiBit-BRM fusion protein, the “BRM HiBit Degradation Maximum (%)” value is “B (“B” indicates maximum degradation ≥ 50%)” and the DC50 is > 100 nM.
On the same counts, the results for `Cc1ncsc1-c1ccc([C@H](C)NC(=O)[C@@H]2C[C@@H](O)CN2C(=O)[C@@H](c2cc(N3CCN(C(=O)[C@@H]4CCc5[nH]c6nnc(-c7ccccc7O)cc6c5C4)CC3)no2)C(C)C)cc1` (single isomer, unassigned) [Compound 192] are < 50%, “A (“A” indicates maximum degradation ≥ 75%)” and > 10 nM.
Take `Cc1ncsc1-c1ccc([C@H](C)NC(=O)[C@@H]2C[C@@H](O)CN2C(=O)[C@H](c2cc(N3CCN(C(=O)c4cc5cc(-c6ccccc6O)nnc5[nH]4)CC3)no2)C(C)C)cc1` (racemic) [Compound 252, (2S,4R)-4-hydroxy-1-((S)-2-(3-(4-(3-(2-hydroxyphenyl)-7H-pyrrolo[2,3-c]pyridazine-6-carbonyl)piperazin-1-yl)isoxazol-5-yl)-3-methylbutanoyl)-N-((S)-1-(4-(4-methylthiazol-5-yl)phenyl)ethyl)pyrrolidine-2-carboxamide]: the Dmax in assay [1] is < 50%. For the same compound, the “BRM HiBit Degradation Maximum (%)” value at HiBit-BRM fusion protein is listed as “C (“C” indicates maximum degradation < 50%)”.
Turning to `Cc1ncsc1-c1ccc([C@H](C)NC(=O)[C@@H]2C[C@@H](O)CN2C(=O)[C@@H](c2cc(OCCCN[C@@H]3CCc4[nH]c5nnc(-c6ccccc6O)cc5c4C3)no2)C(C)C)cc1` (single isomer, unassigned) [Compound 145], the Dmax in assay [1] was < 50%. At HiBit-BRM fusion protein, the “BRM HiBit Degradation Maximum (%)” value is reported as “A (“A” indicates maximum degradation ≥ 75%)” and the DC50 was > 100 nM.
Turning to `O=C1CCC(N2C(=O)c3ccc(OCCN4CCC(C(=O)N5CC(c6cc7cc(-c8ccccc8O)nnc7[nH]6)C5)CC4)cc3C2=O)C(=O)N1` (stereo not shown) [Compound 25, 2-(2,6-dioxopiperidin-3-yl)-5-(2-(4-(3-(3-(2-hydroxyphenyl)-7H-pyrrolo[2,3-c]pyridazin-6-yl)azetidine-1-carbonyl)piperidin-1-yl)ethoxy)isoindoline-1,3-dione], the Dmax in assay [1] is < 50%. On HiBit-BRM fusion protein, the “BRM HiBit Degradation Maximum (%)” value is recorded as “C (“C” indicates maximum degradation < 50%)”.
Regarding `Cc1ncsc1-c1ccc([C@H](C)NC(=O)[C@@H]2C[C@@H](O)CN2C(=O)[C@@H](c2cc(OCCN3CCC(c4c[nH]c5nnc(-c6ccccc6O)cc45)CC3)no2)C(C)C)cc1` (racemic) [Compound 282, (2S,4R)-4-hydroxy-1-((R)-2-(3-(2-(4-(3-(2-hydroxyphenyl)-7H-pyrrolo[2,3-c]pyridazin-5-yl)piperidin-1-yl)ethoxy)isoxazol-5-yl)-3-methylbutanoyl)-N-((S)-1-(4-(4-methylthiazol-5-yl)phenyl)ethyl)pyrrolidine-2-carboxamide], the Dmax in assay [1] is < 50%. At HiBit-BRM fusion protein, the “BRM HiBit Degradation Maximum (%)” value is “A (“A” indicates maximum degradation ≥ 75%)” and the DC50 is > 10 nM.

Source of the values: patent publication US20240024488A1, “COMPOUNDS AND USES THEREOF” (Foghorn Therapeutics Inc., priority 2020, published 2024).
